# Reference: paper PMC12040169 (PLOS Biology, 2025)
# Test: in vitro
# Conditions: human, hela cells, % viability
row,Compound,"viability at 28.5 h, 10 µM"
1,CCN(CC)C(=O)CN1C(=O)N2CCCN=C2c2ccccc21 [CBK284398],84.4%
2,CC(C)N(C(=O)CN1C(=O)N2CCCN=C2c2ccccc21)C(C)C [CBK284400],100%
3,O=C(CN1C(=O)N2CCCN=C2c2ccccc21)NCc1ccccc1 [CBK284403],84.8%
4,CC(C)(C)NC(=O)CN1C(=O)N2CCCN=C2c2ccccc21 [CBK284404],89.7%
5,Cc1nc2c(c(=O)[nH]1)CC[C@@H]1CN(C(=O)C3CCCCC3)C[C@H]21 [CBK284407],102%
6,Cc1ccccc1-n1ncc2c1NC(=O)N1CCCN=C21 [CBK284409],78.7%
7,Cc1nc2c(c(=O)[nH]1)CC[C@@H]1CN(C(=O)Cc3ccsc3)C[C@H]21 [CBK284411],83.5%
8,Cc1nc2c(c(=O)[nH]1)CC[C@@H]1CN(C(=O)CCc3ccccc3)C[C@H]21 [CBK284414],95.9%
9,O=C(c1ccco1)N1C2CCC1CC(O)(c1cccnc1F)C2 (stereo not drawn) [CBK284417],98.6%
10,O=C(c1ccccc1F)N1C2CCC1CC(O)(c1cccnc1F)C2 (stereo not drawn) [CBK284420],98.4%
11,Cn1nccc1C(=O)C1CCN(C(=O)c2cccc(F)c2)CC1 [CBK284426],89.2%
12,Cn1nccc1C(=O)C1CCN(C(=O)c2cc3c(s2)CCC3)CC1 [CBK284427],78.6%
13,COc1ccc2[nH]c3c(c2c1)CCN(C(C)=O)C31CCNCC1 [CBK284429],79.1%
14,c1cncc(C2N3CCC4(CC3)c3[nH]c5ccccc5c3CCN24)c1 (stereo not drawn) [CBK284430],92.8%
15,Fc1ccc2[nH]c3c(c2c1)CCN1C(c2ccccn2)N2CCC31CC2 (stereo not drawn) [CBK284431],101%
16,COc1ccc2[nH]c3c(c2c1)CCN1C(c2ccco2)N2CCC31CC2 (stereo not drawn) [CBK284432],88%
17,O=C1NC2(CCC(=O)N(Cc3ccccc3)CC2)Nc2ccccc21 (stereo not drawn) [CBK284439],89.8%
18,COC(=O)C1CC2CCC1(C)CC21NC(=O)c2ccccc2N1 (stereo not drawn) [CBK284440],100%
19,CCOC(=O)C1CC2CCC1C[C@]21NC(=O)c2ccccc2N1 (stereo partly drawn) [CBK284441],93.4%
20,C=CCNC(=O)C1CC2CCC1(C)C[C@@]21NC(=O)c2ccccc2N1 (stereo partly drawn) [CBK284442],86.6%
21,Cn1cccc1CN1C[C@H]2CC[C@]3(NC(=O)c4ccccc4N3)[C@H]2C1 [CBK284443],97.7%
22,CC(=O)N1CC2(CCN(C(=O)C(C)(C)C)CC2)Nc2ccccc21 [CBK284448],102%
23,O=C1N[C@@]2(CC3CCC2CC3C(=O)N2CCCC2)Nc2ccccc21 (stereo partly drawn) [CBK284449],91.8%

row,Compound,"viability at 28.5 h, 10 µM"
1,CC(C)C(=O)N1C2CCC1Cn1c(nc3ccccc3c1=O)C2 (stereo not drawn) [CBK284450],85.3%
2,O=C(c1ccco1)N1C2CCC1Cn1c(nc3ccccc3c1=O)C2 (stereo not drawn) [CBK284452],89.1%
3,O=C(C1CCC1)N1C2CCC1Cn1c(nc3ccccc3c1=O)C2 (stereo not drawn) [CBK284453],91.5%
4,CN1CCC2(CCC1=O)CC(NC(=O)C1CC1)c1ccccc1O2 (stereo not drawn) [CBK284455],93.3%
5,O=C(CCn1cccn1)N1CCC(c2cc3ncccc3[nH]2)CC1 [CBK284457],83.6%
6,O=C(CCc1ccncc1)N1CCC(c2cc3ncccc3[nH]2)CC1 [CBK284460],84.3%
7,Cc1cc(-c2ccc(=O)n(CCNC(=O)c3cccs3)n2)c(C)o1 [CBK284461],92.3%
8,O=C1CCN(Cc2ccccc2)CCN1Cc1cccc(F)c1 [CBK284466],96.4%
9,Cc1ncsc1C(=O)N1CCCC(n2cnc3cc(F)ccc32)C1 (stereo not drawn) [CBK284470],91.2%
10,Cc1ccc2c(c1)oc(=O)n2CCNC(=O)Cc1c[nH]c2ccccc12 [CBK284473],101%
11,O=C(c1cccnc1)N1CCCC(n2cnc3cc(F)ccc32)C1 (stereo not drawn) [CBK284474],85.6%
12,O=C(c1ccco1)N1CCCC(n2cnc3cc(F)ccc32)C1 (stereo not drawn) [CBK284475],94.8%
13,O=C(c1ccccn1)N1CCCC(n2cnc3cc(F)ccc32)C1 (stereo not drawn) [CBK284476],92.7%
14,O=C(c1cscn1)N1CCCC(n2cnc3cc(F)ccc32)C1 (stereo not drawn) [CBK284477],90.8%
15,Clc1ccc2c(c1)NC(c1ccco1)N1CCN=C21 (stereo not drawn) [CBK284479],84.8%
16,Cc1cc(-c2cnoc2C2CCCN(C(=O)c3cccs3)C2)on1 (stereo not drawn) [CBK284480],102%
17,CC1CCc2nn(CCNC(=O)c3ccco3)c(=O)cc2C1 (stereo not drawn) [CBK284481],95.2%
18,CC1CCc2nn(CCNC(=O)Cc3ccccc3F)c(=O)cc2C1 (stereo not drawn) [CBK284482],97.2%
19,CC1CCc2nn(CCNC(=O)c3cccs3)c(=O)cc2C1 (stereo not drawn) [CBK284483],97.4%
20,CC1CCc2nn(CCNC(=O)C3CCCC3)c(=O)cc2C1 (stereo not drawn) [CBK284484],91.1%
21,c1csc(C2Nc3ccccc3C3=NCCCN32)c1 (stereo not drawn) [CBK284489],99.2%
22,O=C(c1ccco1)N1CCC(c2ccnc3nc4ccccc4n23)CC1 [CBK284490],87.2%
23,Cc1ncc2c(n1)[C@@H]1CN(C(=O)Cc3cccs3)C[C@@H]1CC2 [CBK284491],89.3%

row,Compound,"viability at 28.5 h, 10 µM"
1,Cc1cc(-c2sc(N)nc2-c2cccs2)on1 [CBK284492],87.9%
2,O=C(Nc1nc(-c2ccco2)c(-c2ccncc2)s1)C1CC1 [CBK284494],87.4%
3,CCC(=O)Nc1nc(-c2ccco2)c(-c2ccncc2)s1 [CBK284495],101%
4,O=C(C1CCC1)N1CCC(c2onc3c2CCCCC3)CC1 [CBK284496],104%
5,CCS(=O)(=O)N1CCC(c2onc3c2CCCCC3)CC1 [CBK284497],93.5%
6,c1cncc(-c2ncc(-c3ccco3)c(-c3ccco3)n2)c1 [CBK284503],93.5%
7,O=C(C1CCC1)N1CCC2(CC1)Nc1cccnc1-n1cccc12 [CBK284505],92.5%
8,CC(C)(C)C(=O)N1CCC2(CC1)Nc1cccnc1-n1cccc12 [CBK284507],95.6%
9,Cc1cc(C(=O)N2CC3CCCC(O)(c4cccn4C)C3C2)c(C)[nH]1 (stereo not drawn) [CBK284514],93.9%
10,N=C1OC2CSCC2N1C(=O)Cc1ccccc1Cl (stereo not drawn) [CBK284516],106%
11,N=C1OC2CSCC2N1C(=O)Cc1c(F)cccc1Cl (stereo not drawn) [CBK284517],84.9%
12,Cc1cc(-c2ccc(=O)n(CCNC(=O)C3CCC3)n2)c(C)o1 [CBK284520],110%
13,Cc1cc(-c2ccc(=O)n(CCNC(=O)C3CC3)n2)c(C)o1 [CBK284521],93.2%
14,CC(C)NC(=O)c1ccc(-n2cccn2)c(C#Cc2cccnc2)c1 [CBK284523],94.3%
15,COC(=O)c1ccc(-n2cccn2)c(C#Cc2cccnc2)c1 [CBK284525],95.2%
16,C[C@@H](Cn1nc2c(cc1=O)CCCC2)NC(=O)Cc1ccc(F)cc1 [CBK284526],100%
17,C[C@@H](Cn1nc2c(cc1=O)CCCC2)NC(=O)Cc1cccc(F)c1 [CBK284527],95.9%
18,O=C(c1ccc(F)cc1)N1CCC[C@@H]1Cn1c(=O)oc2ccccc21 [CBK284529],89.4%
19,O=C(Cc1ccsc1)N1CCC[C@@H]1Cn1c(=O)oc2ccccc21 [CBK284530],91.2%
20,CC[C@H](Cn1c(=O)oc2ccccc21)NC(=O)Cc1cccs1 [CBK284537],84.7%
21,CC[C@H](Cn1c(=O)oc2ccccc21)NC(=O)C1CCCC1 [CBK284542],97.2%
22,CC[C@H](Cn1c(=O)oc2ccccc21)NC(=O)Cc1ccsc1 [CBK284543],89.2%
23,C[C@H](Cn1nc2c(cc1=O)CCCCC2)NC(=O)C1CCCC1 [CBK284546],83.2%

row,Compound,"viability at 28.5 h, 10 µM"
1,C[C@@H](Cn1nc2c(cc1=O)CCCC2)NC(=O)c1ccco1 [CBK284559],92.2%
2,C[C@@H](Cn1nc2c(cc1=O)CCCC2)NC(=O)c1ccccc1F [CBK284560],92.5%
3,C[C@@H](Cn1nc2c(cc1=O)CCCC2)NC(=O)c1cccc(F)c1 [CBK284561],87.5%
4,C[C@@H](Cn1nc2c(cc1=O)CCCC2)NC(=O)c1ccc(F)cc1 [CBK284562],91.3%
5,Cc1cccc(C(=O)N[C@@H](C)Cn2nc3c(cc2=O)CCCC3)c1 [CBK284563],89.1%
6,Cc1nc2nc(-c3ccc(F)cc3F)cn2nc1C [CBK284564],90.3%
7,CCN1C(=O)c2ccccc2C(=O)[C@@]2(C)CN(C(=O)C3CC3)C[C@@H]12 [CBK284567],81.5%
8,Cc1cc(C)n(CCCC(=O)N2C[C@H]3CCc4c[nH]nc4[C@H]3C2)n1 [CBK284573],101%
9,CCOC(=O)C1(Cc2cc(-c3cccc(F)c3)no2)CCCNC1 (stereo not drawn) [CBK284578],87.3%
10,CCOC(=O)C1(Cc2cc(-c3ccccc3)no2)CCCNC1 (stereo not drawn) [CBK284583],98.9%
11,CC(=O)N1C[C@@H](c2ccsc2)[C@@H]2CN(Cc3ccccc3)CC[C@@H]21 [CBK284585],109%
12,CC(=O)N1C[C@H](c2ccsc2)[C@H]2CN(Cc3cccs3)CC[C@H]21 [CBK284586],109%
13,CN1C[C@@H](C(=O)N2CCCCCC2)[C@@]2(CCc3ccccc3C2=O)C1 [CBK284590],87%
14,CC(=O)NCCn1cc2c(n1)[C@H]1CN(C(=O)CC(C)(C)C)C[C@H]1CC2 [CBK284592],93.8%
15,Cc1csc2c(C3CCCN(C(=O)c4cnn(C)c4)C3)nc(C)n12 (stereo not drawn) [CBK284595],98.5%
16,COC1CCCC(C(=O)N2CCC(c3onc4c3CCCC4)CC2)C1 (stereo not drawn) [CBK284598],94.3%
17,O=C(Cc1ccccc1F)N1CCCC(c2cnccn2)C1 (stereo not drawn) [CBK284601],96.8%
18,COCC(=O)N1C2CCC(C2)[C@@H]1COc1ccc(F)cc1 (stereo partly drawn) [CBK284603],109%
19,COCCC(=O)N1C2CCC(C2)[C@@H]1COc1ccc(F)cc1 (stereo partly drawn) [CBK284604],96%
20,O=C(Cc1cccs1)N1CCC(c2nnc3n2CCCCC3)CC1 [CBK284606],83.1%
21,O=C(c1ccco1)N1CCC(c2nnc3n2CCCCC3)CC1 [CBK284607],94.3%
